Results from patent US9611252B2 (LifeSci Pharmaceuticals, Inc., priority 2013, dated 2017).
Where two headings read alike, the source gives them in different places.

Biological target: human Plasma Kallikrein (Homo sapiens (Human), UniProt P03952)
Experiment: In vitro enzyme inhibition of human plasma kallikrein (PFR-AMC cleavage)
Type: biochemical
Experimental: The ability of the compounds disclosed herein to inhibit human plasma kallikrein activity was quantified according to the procedures below.
A 10 mM solution of the test compound was made in DMSO. […] A control tube containing only DMSO is included. 16 μL of each compound test solution was combined with 384 μL of assay buffer (50 mM Tris-HCl pH 7.5, 150 mM NaCl, 0.01% Triton X-100) to yield a “4× test compound buffer stock”.
These solutions are hereby referred to as 4×hPK and 2×PFR-AMC, respectively.
50 μL was removed from this mixture and placed into duplicate wells on a Microfluor 1Black U-bottom microtiter plate (Thermo Scientific). This plate was incubated for 5 minutes at 37° C. To each well, 50 μL of pre-warmed 2×PFR-AMC was added to start the enzymatic reaction. Cleavage of PFR-AMC was monitored in a Biotek Synergy H4 reader set at 37° C. Readings are taken every 43 seconds for 1 hour. […] The IC50 is calculated using the Gen5 (Biotek Instruments).
The ability of the compounds in Table 3 to inhibit human plasma kallikrein activity was determined.

[1] = human plasma kallikrein, Pro-Phe-Arg-AMC substrate, 37° C., read-out: hPK IC50

human Plasma Kallikrein, sequence (P03952 20-638): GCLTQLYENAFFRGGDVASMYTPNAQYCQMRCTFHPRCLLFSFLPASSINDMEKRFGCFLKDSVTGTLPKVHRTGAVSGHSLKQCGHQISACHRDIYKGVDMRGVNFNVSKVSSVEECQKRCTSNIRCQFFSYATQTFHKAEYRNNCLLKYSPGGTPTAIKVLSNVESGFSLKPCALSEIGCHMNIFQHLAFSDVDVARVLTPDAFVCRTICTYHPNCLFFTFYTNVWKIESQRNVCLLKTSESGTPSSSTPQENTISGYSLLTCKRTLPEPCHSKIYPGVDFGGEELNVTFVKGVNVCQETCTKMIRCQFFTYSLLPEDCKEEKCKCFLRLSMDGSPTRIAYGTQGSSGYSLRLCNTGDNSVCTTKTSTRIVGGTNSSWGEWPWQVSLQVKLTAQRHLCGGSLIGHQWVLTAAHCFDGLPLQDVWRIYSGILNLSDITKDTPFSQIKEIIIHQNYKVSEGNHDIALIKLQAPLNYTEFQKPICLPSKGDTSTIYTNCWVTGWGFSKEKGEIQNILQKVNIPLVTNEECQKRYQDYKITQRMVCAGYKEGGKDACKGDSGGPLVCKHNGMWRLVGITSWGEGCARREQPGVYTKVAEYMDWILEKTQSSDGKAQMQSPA

IC50 [1] [nM] | Compound | IC50 [nM]
< 100 | Cc1cc(N)nc(C)c1CNC(=O)c1ccnc(Cc2ccc3nc(CN)ccc3c2)c1 [Example 46, N-((6-amino-2,4-dimethylpyridin-3-yl)methyl)-2-((2-(aminomethyl)quinolin-6-yl)methyl)isonicotinamide] | 
100 to 1000 | Nc1ccc(CNC(=O)c2ccnc(Cc3ccc4ncc(Cl)cc4c3)c2)c(C2CC2)n1 [Example 43, N-((6-amino-2-cyclopropylpyridin-3-yl)methyl)-2-((3-chloroquinolin-6-yl)methyl)isonicotinamide] | 
< 100 | COC(=O)c1cc(Cc2cc(C(=O)NCc3ccc(N)nc3C)ccn2)cc2cc(Cl)cnc12 [Example 95, methyl 6-((4-(((6-amino-2-methylpyridin-3-yl)methyl)carbamoyl)pyridin-2-yl)methyl)-3-chloroquinoline-8-carboxylate] | 
< 100 | Cc1cc(N)nc(C)c1CNC(=O)c1ccnc(Cn2ncc3cc(Cl)ccc32)c1 [Example 105, N-((6-amino-2,4-dimethylpyridin-3-yl)methyl)-2-((5-chloro-1H-indazol-1-yl)methyl)isonicotinamide] | 
< 100 | Cc1nc(N)ccc1CNC(=O)c1ccnc(Cc2cnc3ccc(F)cc3c2)c1 [Example 121, N-((6-amino-2-methylpyridin-3-yl)methyl)-2-((6-fluoroquinolin-3-yl)methyl)isonicotinamide] | 
< 100 | N#Cc1ccc2cc(Cc3cc(C(=O)NCc4ccc5c(N)nccc5c4)ccn3)ccc2n1 [Example 3, N-((1-aminoisoquinolin-6-yl)methyl)-2-((2-cyanoquinolin-6-yl)methyl)isonicotinamide] | 
< 100 | Cc1cc(N)nc(C)c1CNC(=O)c1ccnc(Cc2cnc3cc(Cl)ccc3c2)c1 [Example 141, N-((6-amino-2,4-dimethylpyridin-3-yl)methyl)-2-((7-chloroquinolin-3-yl)methyl)isonicotinamide] | 
< 100 | Cc1cc(N)nc(C)c1CNC(=O)c1ccnc(Cc2cnc3cc(F)ccc3c2)c1 [Example 122, N-((6-amino-2,4-dimethylpyridin-3-yl)methyl)-2-((7-fluoroquinolin-3-yl)methyl)isonicotinamide] | 
< 100 | Cc1cc(N)nc(C)c1CNC(=O)c1ccnc(Cc2ccc3ncc(Cl)cc3c2F)c1 [Example 102, N-((6-amino-2,4-dimethylpyridin-3-yl)methyl)-2-((3-chloro-5-fluoroquinolin-6-yl)methyl)isonicotinamide] | 
< 100 | Cc1cc(N)nc(C)c1CNC(=O)c1ccnc(Cc2ccc3nccc(C#N)c3c2)c1 [Example 138, N-((6-amino-2,4-dimethylpyridin-3-yl)methyl)-2-((4-cyanoquinolin-6-yl)methyl)isonicotinamide] | 
100 to 1000 | Cc1cc(N)ncc1CNC(=O)c1ccnc(Cn2cc3cc(Cl)ccc3cc2=O)c1 [Example 85, N-((6-amino-4-methylpyridin-3-yl)methyl)-2-((7-chloro-3-oxoisoquinolin-2(3H)-yl)methyl)isonicotinamide] | 
100 to 1000 | O=C(NCc1cc2c(Cl)c[nH]c2cc1F)c1ccnc(Cn2cc3cc(Cl)ccc3cc2=O)c1 [Example 88, 2-((7-chloro-3-oxoisoquinolin-2(3H)-yl)methyl)-N-((3-chloro-6-fluoro-1H-indol-5-yl)methyl)isonicotinamide] | 
100 to 1000 | Cc1nc(N)ccc1CNC(=O)c1ccnc(Cn2cc3cc(Cl)ccc3cc2=O)c1 [Example 86, N-((6-amino-2-methylpyridin-3-yl)methyl)-2-((7-chloro-3-oxoisoquinolin-2(3H)-yl)methyl)isonicotinamide] | 
 | Cc1cc(N)nc(C)c1CNC(=O)c1ccnc(Cn2ccc3c(Cl)cccc3c2=O)c1 [Example 22, N-(6-Amino-2,4-dimethyl-pyridin-3-ylmethyl)-2-(5-chloro-1-oxo-1H-isoquinolin-2-ylmethyl)-isonicotinamide] | 100 to 1000
< 100 | Cc1cnc2c(C#N)cc(Cc3cc(C(=O)NCc4n[nH]c5ccc(Cl)cc45)ccn3)cc2c1 [Example 75, N-((5-chloro-1H-indazol-3-yl)methyl)-2-((8-cyano-3-methylquinolin-6-yl)methyl)isonicotinamide] | 
< 100 | O=C(NCc1cc2c(Cl)c[nH]c2cc1F)c1ccnc(Cc2cnc3ccccc3c2)c1 [Example 125, N-((3-chloro-6-fluoro-1H-indol-5-yl)methyl)-2-(quinolin-3-ylmethyl)isonicotinamide] | 
100 to 1000 | NCc1ccc2cc(Cc3cc(C(=O)NCc4cc5c(Cl)c[nH]c5cc4F)ccn3)ccc2n1 [Example 45, 2-((2-(aminomethyl)quinolin-6-yl)methyl)-N-((3-chloro-6-fluoro-1H-indol-5-yl)methyl)isonicotinamide] | 
< 100 | O=C(NCc1cc2c(Cl)c[nH]c2cc1F)c1ccnc(Cc2cnc3ccc(Cl)cc3c2)c1 [Example 126, N-((3-chloro-6-fluoro-1H-indol-5-yl)methyl)-2-((6-chloroquinolin-3-yl)methyl)isonicotinamide] | 
< 100 | Cc1cc(N)nc(C)c1CNC(=O)c1ccnc(Cc2cnc3ccc(F)cc3c2)c1 [Example 119, N-((6-amino-2,4-dimethylpyridin-3-yl)methyl)-2-((6-fluoroquinolin-3-yl)methyl)isonicotinamide] | 
< 100 | Cc1cc(N)nc(C)c1CNC(=O)c1ccnc(Cc2cc(CO)c3ncc(Cl)cc3c2)c1 [Example 94, N-((6-amino-2,4-dimethylpyridin-3-yl)methyl)-2-((3-chloro-8-(hydroxymethyl)quinolin-6-yl)methyl)isonicotinamide] | 
< 100 | Nc1nccc2cc(CNC(=O)c3ccnc(Cc4cnc5cc(F)ccc5c4)c3)ccc12 [Example 124, N-((1-aminoisoquinolin-6-yl)methyl)-2-((7-fluoroquinolin-3-yl)methyl)isonicotinamide] | 
< 100 | O=C(NCc1n[nH]c2ccc(Cl)cc12)c1ccnc(Cc2ccc3ncc(Cl)cc3c2)c1 [Example 37, N-(5-chloro-1H-indazol-3-ylmethyl)-2-(3-chloro-quinolin-6-ylmethyl)-isonicotinamide] | 
100 to 1000 | Nc1nccc2cc(CNC(=O)c3ccnc(Cc4cnc5ccc(F)cc5n4)c3)ccc12 [Example 8, N-((1-aminoisoquinolin-6-yl)methyl)-2-((7-fluoroquinoxalin-2-yl)methyl)isonicotinamide] | 
100 to 1000 | Cc1nc(N)ccc1CNC(=O)c1ccnc(Cc2cc(C(=O)O)c3ncc(Cl)cc3c2)c1 [Example 96, 6-((4-(((6-amino-2-methylpyridin-3-yl)methyl)carbamoyl)pyridin-2-yl)methyl)-3-chloroquinoline-8-carboxylic acid] | 
< 100 | Cc1cc(N)nc(C)c1CNC(=O)c1ccnc(Cc2cc(C(=O)O)c3ncc(Cl)cc3c2)c1 [Example 93, 6-((4-(((6-amino-2,4-dimethylpyridin-3-yl)methyl)carbamoyl)pyridin-2-yl)methyl)-3-chloroquinoline-8-carboxylic acid] | 

Compound | IC50 [1] [nM] | IC50 [nM]
N#Cc1cc(Cc2cc(C(=O)NCc3cc4cc[nH]c4cc3F)ccn2)cc2cc(Cl)cnc12 [Example 52, 2-((3-chloro-8-cyanoquinolin-6-yl)methyl)-N-((6-fluoro-1H-indol-5-yl)methyl)isonicotinamide] | < 100 | 
CS(=O)(=O)c1ccc2ncc(Cc3cc(C(=O)NCc4cc5c(Cl)c[nH]c5cc4F)ccn3)cc2c1 [Example 12, N-((3-chloro-6-fluoro-1H-indol-5-yl)methyl)-2-((6-(methylsulfonyl)quinolin-3-yl)methyl)isonicotinamide] | < 100 | 
Cc1cc(N)nc(C)c1CNC(=O)c1ccnc(Cc2ccc3[nH]cc(C)c3c2)c1 [Example 25, N-((6-amino-2,4-dimethylpyridin-3-yl)methyl)-2-((3-methyl-1H-indol-5-yl)methyl)isonicotinamide] | 100 to 1000 | 
CC(=O)NCc1ccc2cc(Cc3cc(C(=O)NCc4c(C)cc(N)nc4C)ccn3)ccc2n1 [Example 11, 2-[2-(acetylamino-methyl)-quinolin-6-ylmethyl]-N-(6-amino-2,4-dimethyl-pyridin-3-ylmethyl)-isonicotinamide] | 100 to 1000 | 
Cc1cnc2c(C#N)cc(Cc3cc(C(=O)NCc4ccc5[nH]cc(Cl)c5c4F)ccn3)cc2c1 [Example 74, N-((3-chloro-4-fluoro-1H-indol-5-yl)methyl)-2-((8-cyano-3-methylquinolin-6-yl)methyl)isonicotinamide] | < 100 | 
Cc1cc(N)ncc1CNC(=O)c1ccnc(Cc2cc(C(N)=O)c3ncc(Cl)cc3c2)c1 [Example 63, 6-((4-(((6-amino-4-methylpyridin-3-yl)methyl)carbamoyl)pyridin-2-yl)methyl)-3-chloroquinoline-8-carboxamide] | < 100 | 
Cc1cnc2c(C#N)cc(Cc3cc(C(=O)NCc4cc5cc[nH]c5cc4F)ccn3)cc2c1 [Example 76, 2-((8-cyano-3-methylquinolin-6-yl)methyl)-N-((6-fluoro-1H-indol-5-yl)methyl)isonicotinamide] | < 100 | 
CS(=O)(=O)c1ccc2ncc(Cc3cc(C(=O)NCc4ccc5c(N)nccc5c4)ccn3)cc2c1 [Example 13, N-((1-aminoisoquinolin-6-yl)methyl)-2-((6-(methylsulfonyl)quinolin-3-yl)methyl)isonicotinamide] | 100 to 1000 | 
Cc1nc(N)c(Cl)cc1CNC(=O)c1ccnc(Cc2ccc3ncc(Cl)cc3c2)c1 [Example 28, N-((6-amino-5-chloro-2-methylpyridin-3-yl)methyl)-2-((3-chloroquinolin-6-yl)methyl)isonicotinamide] | 1000 to 10000 | 
